Experimental data: PubChem BioAssay (NCI)
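Test compounds were applied to cells in 96-well plates for 48 hours at 5 doses. TGI: total growth inhibition.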

Assays:
Assay in all cases: growth of human tumour cells (NCI), 48 h
CAKI-1 renal = test system: CAKI-1 renal
UO-31 renal = test system: UO-31 renal
SK-MEL-2 melanoma = test system: SK-MEL-2 melanoma
MCF7 breast = test system: MCF7 breast
786-0 renal = test system: 786-0 renal
MDA-MB-435 = test system: MDA-MB-435
SF-295 CNS = test system: SF-295 CNS
EKVX NSCLC = test system: EKVX NSCLC
OVCAR-3 ovarian = test system: OVCAR-3 ovarian
IGROV1 ovarian = test system: IGROV1 ovarian
OVCAR-8 ovarian = test system: OVCAR-8 ovarian
A549 NSCLC = test system: A549 NSCLC
HT29 colon = test system: HT29 colon
MDA-N = test system: MDA-N
U251 CNS = test system: U251 CNS
HL-60(TB) leukemia = test system: HL-60(TB) leukemia
RXF 393 renal = test system: RXF 393 renal

SMILES | TGI (CAKI-1 renal) [µM] | TGI (UO-31 renal) [µM] | TGI (SK-MEL-2 melanoma) [µM] | TGI (MCF7 breast) [µM] | TGI (786-0 renal) [µM] | TGI (MDA-MB-435) [µM] | TGI (SF-295 CNS) [µM] | TGI (EKVX NSCLC) [µM] | TGI (OVCAR-3 ovarian) [µM] | TGI (IGROV1 ovarian) [µM] | TGI (OVCAR-8 ovarian) [µM] | TGI (A549 NSCLC) [µM] | TGI (HT29 colon) [µM] | TGI (MDA-N) [µM] | TGI (U251 CNS) [µM] | TGI (HL-60(TB) leukemia) [µM] | TGI (RXF 393 renal) [µM]
O=c1c2c(oc3ccccc13)-c1ccccc1OC2 | > 100 | > 100 | > 100 | > 100 | 64.2 | > 100 | > 100 | > 100 | > 100 | > 100 | > 100 | > 100 | > 100 | > 100 | > 100 | – | –
CS(=O)(=O)c1nc(-c2cc3c(c(S(C)(=O)=O)n2)CCC3)cc2c1CCCCC2 | > 100 | > 100 | 63.1 | – | > 100 | > 100 | > 100 | > 100 | > 100 | 63.7 | > 100 | > 100 | > 100 | > 100 | > 100 | > 100 | 39.3
CCOC(=O)NC(=O)c1cn(CCOC(=O)CCCCCCCCC(=O)OCCn2cc(C(=O)NC(=O)OCC)c(=O)[nH]c2=O)c(=O)[nH]c1=O | > 100 | > 100 | > 100 | – | > 100 | – | > 100 | > 100 | > 100 | > 100 | > 100 | > 100 | > 100 | – | – | > 100 | > 100
O=C1/C(=C/c2cccc(F)c2)CCCc2ccccc21 | 31.6 | 29.9 | 29.8 | 30.5 | 30.9 | 29.7 | 29.7 | 28.6 | 28.6 | 24.6 | 29.3 | 38.2 | 25.9 | – | 29.7 | 62.9 | –
COc1ccc2c3c1O[C@]1(C)C34CCN(C)C(C2)C42C=C[C@@]1(OC)c1c(O)ccc(O)c12 | – | > 100 | > 100 | – | > 100 | – | > 100 | > 100 | > 100 | > 100 | > 100 | > 100 | > 100 | – | > 100 | > 100 | > 100
COc1cc2c(oc(=O)c3c4oc([Si](C)(C)C)cc4cc(OC)c23)c2cccc(OCc3ccccc3)c12 | 41.2 | > 100 | > 100 | – | 34.8 | – | 50.9 | > 100 | > 77.9 | > 100 | > 71.5 | > 100 | > 100 | – | – | > 92 | > 48.2
Nc1ccnc(=O)[nH]1 | > 100 | > 100 | > 100 | – | > 100 | – | > 100 | > 100 | > 100 | > 100 | > 100 | > 100 | > 100 | – | > 100 | > 100 | > 100
C[C@]12CCC(=O)C=C1CC[C@@H]1[C@@H]2CC[C@]2(C)C(=O)NC(=O)C[C@@H]12 | > 100 | > 100 | > 100 | – | > 100 | – | > 100 | > 100 | > 100 | > 100 | > 100 | > 100 | > 100 | – | > 100 | > 100 | > 100
CCOC(=O)N1CCN(C=S)CC1 | – | > 100 | > 100 | – | > 100 | – | – | > 100 | > 100 | > 100 | > 100 | > 100 | > 100 | – | > 100 | > 100 | > 100
CSc1nc(C#N)c(/N=C\N(C)C)n1C | > 100 | > 100 | > 100 | – | > 100 | > 100 | > 100 | > 100 | > 100 | > 100 | > 100 | > 100 | – | > 100 | > 100 | > 100 | > 100
Cn1c(=O)c(Br)c(C=O)n(CCO[N+](=O)[O-])c1=O | – | – | 15.8 | 6.17 | 17.3 | 21.6 | – | 7.07 | – | – | 7.79 | 33 | – | 17.3 | 9.77 | 4.46 | –
CC(=O)NC1C(OCc2ccccc2)OC(CO)C(O)C1OC(C)C(=O)NC(C(=O)N[C@@H](CCC(=O)NCCNCCNc1c2ccccc2nc2cccc([N+](=O)[O-])c12)C(N)=O)C(C)C (stereo partly specified) | > 100 | 64.6 | 46.7 | 41.5 | 76.9 | 29.3 | > 100 | – | > 100 | > 100 | > 100 | 97 | – | 54.5 | > 100 | > 100 | –
Cc1cc(=O)n(-c2ccccc2C)c(C)n1 | > 100 | > 100 | > 100 | – | > 100 | – | > 100 | > 100 | > 100 | > 100 | > 100 | > 100 | > 100 | – | > 100 | > 100 | > 100
N#Cc1c(N)nc(-c2ccc(Cl)cc2)c2c1-c1ccccc1S(=O)(=O)CC2 | > 100 | > 100 | > 100 | – | > 100 | > 100 | – | – | > 100 | > 100 | > 100 | > 100 | > 100 | > 100 | > 100 | – | –
COC(=O)C(=O)C(C(=O)C(=O)Nc1ccc(F)cc1)c1nc2ccc([N+](=O)[O-])cc2[nH]c1=O (stereo unspecified) | > 100 | > 100 | – | – | > 100 | – | > 100 | > 100 | > 100 | > 100 | > 100 | > 100 | > 100 | – | > 100 | > 100 | > 100
Cn1cc2ccccc2c1-c1nc(F)nc(F)n1 | > 100 | > 100 | > 100 | – | > 100 | – | > 100 | > 100 | > 100 | > 100 | – | > 100 | > 100 | – | > 100 | > 100 | > 100
